The test system of one test is H9c2. Nature of the test: cells. Conditions: Rattus norvegicus, H9c2, Myocardium. Format: functional, cell-based.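 Note: confirmatory concentration-response retest of ultra-high-throughput screening hits for modulation of myocardial damage; cell death induced by hydrogen peroxide oxidative stress; compound pretreatment for 60 min then peroxide exposure for 2 h; potency is for protecting the cells against peroxide damage rather than for killing them.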
The next test deals with H4. Nature of the test: Luminescence Cell-Based Dose Response HTS to Identify Activators of 5'UTR Stem-Loop Driven Prion Protein mRNA Translation in H4 Neuroglioblastoma Cells. [Related pubchem assays: 1829 (Project Summary), 1814 (Primary HTS)]. Conditions: Homo sapiens. Format: functional.
Test [1] can be described thus: Luminescence Cell-Based Dose Response HTS to Identify Activators of Luciferase Translation or Activity in H4 […] Cells. [Related pubchem assays: 1829 (Project Summary), 1814 (Primary HTS)]. Format: functional.
Test [2] in a line: Luminescence Cell-Based Dose Confirmation HTS to Identify Activators of 5'UTR Stem-Loop Driven Alpha-Synuclein mRNA Translation in H4 Neuroglioblastoma Cells. [Related pubchem assays: 1829 (Project Summary), 1814 (Primary HTS)]. It counts as functional.
Another test has as its system Streptococcus. Nature of the test: GAS UMAA2166 growth inhibition – luminescence, BacTiterGlo, counter-screen for streptokinase expression inhibitor project, dose response (AID 1915).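 Note: potency for reduction of bacterial viability or growth.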 Format: functional, organism-based. (A counterscreen serves to expose hits that act by an unwanted route or on another target.)
The target in the next test is T1, Streptokinase A (Streptococcus pyogenes serotype M1, UniProt P10520).
T1 sequence (P10520 whole entry): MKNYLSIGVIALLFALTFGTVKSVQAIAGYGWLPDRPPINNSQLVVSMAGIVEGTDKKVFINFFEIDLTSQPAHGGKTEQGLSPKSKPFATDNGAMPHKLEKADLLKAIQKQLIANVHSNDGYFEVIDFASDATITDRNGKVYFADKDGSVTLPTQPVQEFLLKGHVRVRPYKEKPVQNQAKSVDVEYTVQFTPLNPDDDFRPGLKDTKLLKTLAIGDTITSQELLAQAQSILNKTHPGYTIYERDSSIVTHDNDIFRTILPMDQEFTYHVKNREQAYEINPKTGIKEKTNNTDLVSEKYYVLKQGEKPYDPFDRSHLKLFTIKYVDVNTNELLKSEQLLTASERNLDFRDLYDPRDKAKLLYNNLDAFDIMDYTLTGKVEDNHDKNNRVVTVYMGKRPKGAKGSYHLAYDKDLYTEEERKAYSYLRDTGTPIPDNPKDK
Nature of the test: viability-normalized secreted streptokinase activity reduction – plasminogen activation absorbance, OD405, dose response (AID 1914).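 Note: secreted streptokinase activity via plasminogen activation per viability signal from cell pellet.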 It counts as functional, Streptococcus pyogenes M1 GAS.

In test [3] the test system is Streptococcus sp. 'group A'. Nature of the test: Streptococcus pyogenes SK(-)GAS viability under kanamycin – luminescence, BacTiterGlo, confirmation, counter-screen for streptokinase expression inhibitor project, dose response (AID 1900). Format: functional, organism-based.
A short description of test [4]: NIH-3T3 fibroblast cytotoxicity, dose response, cytotoxicity control, cell-based, fluorescence, Alamar Blue, secondary assay (AID 2327).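 Note: NIH-3T3 mouse fibroblasts cultured with fluconazole at 8 µg/mL.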 Format: functional. (In general: Alamar Blue is a resazurin reagent that responds to reducing activity.)
A short description of test [5]: fluconazole-exposed Candida albicans growth modulators – fluorescence, retest, confirmation (AID 2467). Format: functional, cell-based.
A short description of test [6]: P. falciparum Dd2 growth inhibitors, dose response, SYBR Green, cherry-picked samples (AID 1159567). Format: functional, cell-based.
Test [7] in a line: Luminescence Cell-Based Dose Confirmation HTS to Identify Inhibitors of Platelet Dense Granule Release. [Related pubchem assays: 1663 (Primary HTS), 1678 (Summary of Project)]. It counts as functional.
The target of test [8] is Luciferin 4-monooxygenase (Photinus pyralis, UniProt P08659). The test can be described thus: inhibition of purified Photinus pyralis luciferase – biochemical, luminescence, dose response (AID 1891).
Chain of Luciferin 4-monooxygenase (P08659 whole entry): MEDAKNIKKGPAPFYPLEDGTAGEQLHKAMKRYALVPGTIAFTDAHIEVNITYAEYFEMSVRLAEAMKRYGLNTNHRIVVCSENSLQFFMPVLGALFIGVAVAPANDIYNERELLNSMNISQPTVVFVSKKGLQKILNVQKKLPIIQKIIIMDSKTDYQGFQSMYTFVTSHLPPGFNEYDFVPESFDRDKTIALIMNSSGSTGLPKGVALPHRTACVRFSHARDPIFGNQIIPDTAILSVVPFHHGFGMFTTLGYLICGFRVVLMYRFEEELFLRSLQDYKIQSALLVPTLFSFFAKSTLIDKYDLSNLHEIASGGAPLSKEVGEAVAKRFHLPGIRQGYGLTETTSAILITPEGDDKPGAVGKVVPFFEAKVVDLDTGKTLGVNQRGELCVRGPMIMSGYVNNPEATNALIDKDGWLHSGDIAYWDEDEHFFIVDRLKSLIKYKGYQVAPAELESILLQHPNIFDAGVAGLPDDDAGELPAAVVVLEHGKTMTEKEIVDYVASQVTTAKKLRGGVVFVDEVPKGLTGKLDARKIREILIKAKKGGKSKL
A short description of test [9]: luciferase reporter signal suppression in cells – H4 neuroglioma cells, luminescence, dose response (AID 1990). Format: functional, cell-based. On the technique in general: Reporter assays use an easily measured gene product as a stand-in for the process of interest.
The target of the next test is Cytochrome P450 2C9 (Homo sapiens, UniProt P11712).
Chain of Cytochrome P450 2C9 (P11712 whole entry): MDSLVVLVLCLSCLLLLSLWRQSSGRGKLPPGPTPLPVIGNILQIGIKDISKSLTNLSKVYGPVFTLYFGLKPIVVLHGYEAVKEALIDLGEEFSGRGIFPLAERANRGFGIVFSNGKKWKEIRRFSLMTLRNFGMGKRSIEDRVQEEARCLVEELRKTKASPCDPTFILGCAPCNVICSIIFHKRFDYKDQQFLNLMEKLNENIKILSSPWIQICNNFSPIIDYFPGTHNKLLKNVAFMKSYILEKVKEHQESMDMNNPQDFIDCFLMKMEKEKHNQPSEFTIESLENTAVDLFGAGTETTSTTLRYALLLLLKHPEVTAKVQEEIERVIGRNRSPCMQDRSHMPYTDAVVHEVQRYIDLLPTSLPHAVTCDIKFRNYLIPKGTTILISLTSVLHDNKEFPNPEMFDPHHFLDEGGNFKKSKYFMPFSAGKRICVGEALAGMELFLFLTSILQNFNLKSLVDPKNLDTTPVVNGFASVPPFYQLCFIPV

The text below walks through data of ChEMBL document CHEMBL1201862, “PubChem BioAssay data set” (2004).

“And” between values parts separate entries of the source, which are not always exact repeats. Equal values may be shown once. The source made the active and inactive calls. Cut-off read from the data, not from the text of the source, for most assays here: actives have a measured EC50 and inactives only a lower limit. Bounds are passed on as bounds.

The IC50 is the midpoint of a concentration-inhibition curve. In the case of `COc1ccc2nc(O)c(CN(Cc3ccco3)Cc3nnnn3Cc3ccccc3)cc2c1`, the IC50 with H9c2 is > 79 µM (inactive).
As a reminder, the EC50 is the concentration that produces a half-maximal response. Consider `Cc1ccc(C2NC(=O)c3ccccc3N2)s1` (centres undefined), for which the EC50 is 11.8 µM (active) with H4, 10.5 µM (active) in [1] and > 120 µM (not active) in test [2].
Turning to `O=C(COc1ccccc1F)Nc1nc(-c2ccccn2)cs1`, the IC50 with H9c2 was > 79 µM (inactive).
With `Cc1ccc(C(O)(C(=O)NNc2ccc3ccccc3n2)c2ccc(C)cc2)cc1`, the EC50 with Streptococcus is 10.9 µM (active); with Streptococcus (Streptococcus), 12.1 µM (active); at Streptokinase A it was > 150 µM (not active) and 8.85 µM (active); in test [3], 2.55 µM (active); in test [3] (Streptococcus sp. 'group A'), 3.72 µM (active).
Turning to `O=C(NCCSc1ccccc1)c1cncc(Br)c1`, the EC50 was 9.26 µM (active) in the test on H4, 5.57 µM (active) in test [1] and 30.1 µM (active) in test [2].
`CCOC(=O)[C@@H]1[C@H]2COc3ccccc3[C@H]2N2C(=O)N(c3ccc(C(F)(F)F)cc3)C(=O)[C@]12C`: the EC50 is > 150 µM (not active) with Streptococcus (Streptococcus), 17 µM (inconclusive) at Streptokinase A and 9.78 µM (active) in test [3] (Streptococcus sp. 'group A').
As to `Cc1nnc(NC(=O)c2c(-c3ccccc3Cl)noc2C)s1`, the EC50 was 32.1 µM (active) in test [4] and 4.42 µM (active) in test [5].
In the case of `CCC1SC(NC(=O)NC2CCCCC2)=NC1=O` (centres undefined), the EC50 in the test on H4 is 0.115 µM (active); in test [1] it was 27.5 µM (active); in test [2], 15.8 µM (active).
For the compound `CCCCc1c(C)nn(-c2nnc3c4ccccc4n(C)c3n2)c1C`, the EC50 in the test with H4 was 15.8 µM (active); in test [1], 5.26 µM (active); in [2], > 120 µM (not active).
As for `COc1ccc(OC)c(NC(=O)NC2CCCc3ccccc32)c1` (centres undefined), the concentration giving a half-maximal response (EC50) (in the test on Streptococcus (Streptococcus); at Streptokinase A; in test [3] (Streptococcus sp. 'group A')) was > 150 µM (not active) throughout.
For the compound `Clc1ccccc1Nc1ncnc(-n2cccc2)n1`, the figures for the EC50 (in the test on H4; in test [1]; in test [2]) were 6.97 µM (active), 1.7 µM (active) and 0.153 µM (active), respectively.
As to `COc1ccc2nc(O)c(CN(CCc3ccccc3)Cc3nnnn3CC3CCCO3)cc2c1` (centres undefined), the IC50 in the test on H9c2 was 14.6 µM (active).
In the case of `O=C(Nc1cccc(-c2ccc(N3CCOCC3)nn2)c1)c1ccccc1Cl`, the EC50 (in the test on Streptococcus (Streptococcus); on Streptokinase A; in test [3] (Streptococcus sp. 'group A')) was > 150 µM (not active) throughout.
Turning to `C=CCn1c[n+](CC(=O)c2ccc(Br)s2)c2ccccc21`, the figures for the EC50 in [4] and in [5] were > 160 µM (inactive) and > 38 µM (not active), respectively.
As a reminder, the AC50 is the concentration giving half of the maximal activity seen. As to `COc1ccc(S(=O)(=O)N[C@@H]2CC[C@H](CCn3cc(-c4ccccc4F)nn3)O[C@@H]2CO)cc1`, in test [6], the AC50 is 8.67 µM (active).
In the case of `CC1CCN(CCCNC(=O)c2nnc(O)c3ccccc23)CC1`, in the test on H9c2, the IC50 is 48.9 µM (inactive).
Consider `CSc1nnc2c(n1)c(C)nn2-c1ccc(C)cc1`, for which the EC50 was 4.22 µM (active) in the test with H4, 16.1 µM (active) in test [1] and 0.114 µM (active) in [2].
For the compound `CO[C@@H]1CN(C)C(=O)c2cc(NC(=O)Nc3cccc(Cl)c3)ccc2OC[C@@H](C)NC[C@@H]1C`, the AC50 in [6] was 9.36 µM (active).
On to `CCOc1ccccc1-c1nc(C(N)=O)c2nc(O)n(-c3cccc(C)c3)c2n1`, for which the EC50 in test [7] and in test [8] was > 112 µM (not active) each time.
`Cc1ccc2occ(/C=N/NC(=O)c3ccccc3O)c(=O)c2c1`: the results for the EC50 in test [4] and in test [5] were > 150 µM (inconclusive) and > 38 µM (not active), respectively.
For the compound `COc1ccc(CN(C)C(=O)C(Cc2ccccc2)NC(=O)c2ccccc2)cc1F` (centres undefined), the IC50 with H9c2 was > 79 µM (inactive).
Regarding `COc1ccc2c3c([nH]c2c1)[C@@H](CO)N(Cc1ccccc1F)CC31CCN(C(=O)C2CCOCC2)CC1`, the AC50 in [6] was 6.46 µM (active).
Turning to `Cc1cccc(NC2=NN=C(c3c(C)[nH]c4ccccc34)CS2)c1`, the EC50 with Streptococcus (Streptococcus) was 6.58 µM (active); at Streptokinase A, > 150 µM (not active); in test [3] (Streptococcus sp. 'group A') it was 3.91 µM (active).
Turning to `COc1ccc(NC(=O)N(C)C[C@H]2OCc3ccccc3-c3c(n(C)c4ccccc34)C(=O)N([C@H](C)CO)C[C@@H]2C)c(OC)c1`, in test [6], the AC50 is 7.42 µM (active).
Take `O=C(CC1Oc2ccccc2NC1=O)NC1CC1` (centres undefined): the EC50 in test [7] and in [8] was > 112 µM (not active) each time.
`O=C1CN(S(=O)(=O)c2ccccc2)C[C@H]2[C@H](c3ccc(C#CCc4ccccc4)cc3)[C@@H](CO)N12`: the AC50 in test [6] is 4.06 µM (active).
Take `O=C(c1ccc2c(c1)OCO2)N1CCC2(CC1)Oc1ccc(Cl)cc1C(=O)C21CC(c2cccnc2)=NO1` (centres undefined): the EC50 was > 150 µM (inactive) in test [4] and 2.08 µM (active) in test [5].
As to `CC(=O)c1cccc(NC(=O)COC(=O)[C@@H](NC(=O)OCc2ccccc2)C(C)C)c1`, the EC50 in test [7] and in test [8] was > 112 µM (not active) throughout.
Consider `CCOC(=O)c1sc2ncnc(NCC(c3cccs3)N(C)C)c2c1C` (centres undefined), for which the EC50 in the test with Streptococcus (Streptococcus) is 50.8 µM (active); on Streptokinase A it was > 150 µM (not active); in test [3] (Streptococcus sp. 'group A'), 7.15 µM (active).
On to `NC(=O)N1CCC2(CC1)NC(=O)N(c1ccccc1)N2`, for which the EC50 in test [4] is > 150 µM (inconclusive).
Regarding `C=CCN1c2ccccc2[C@]23C[C@@H](C(=O)OC)N(C(=O)c4cc(C)oc4C)C2=NC(C(=O)OC)=C(C(=O)OC)[C@H]13`, the EC50 in the test on H4 is > 120 µM (not active); in test [1] it was > 120 µM (not active); in test [2], 9.07 µM (active).
Consider `COc1cccc(NC(=O)CN(C)C(=O)CCCc2nc(O)c3ccccc3n2)c1`, for which, in the test on H9c2, the IC50 was > 79 µM (inactive).
Take `CCCOc1ccc(C2=NNC(=O)CC2)cc1`: the EC50 in test [9] was < 0.1 µM (active).
On to `C/C(=N\NC(=O)c1cccnc1)c1ccc(OC2OCCOC2Oc2ccc(/C(C)=N/NC(=O)c3cccnc3)cc2)cc1` (centres undefined), for which the IC50 in the test with H9c2 was > 79 µM (inactive).
As to `O=C(c1ccccc1)N1CCN(CC#Cc2ccccc2)CC1`, the EC50 with H4 was 6.67 µM (active); in test [1], 9.34 µM (active); in test [2], 8.44 µM (active).
For the compound `O=c1c2ccccc2nc(-c2ccco2)n1Cc1ccccc1`, the EC50 in [1] was 8.08 µM (active); in test [2], 34.1 µM (active).
For the compound `CSc1ccc(C2c3[nH]c4ccccc4c3CCN2C(=O)c2ccnn2C)cc1` (centres undefined), the EC50 in [4] is > 150 µM (inactive); in test [5] it was 2.7 µM (active).
Consider `COc1ccc(Nc2nc(NN)nc(Nc3ccc(OC)cc3)n2)cc1`, for which the EC50 with Streptococcus (Streptococcus) was > 150 µM (not active); at Streptokinase A it was > 150 µM (not active); in [3] (Streptococcus sp. 'group A') it was 11.3 µM (active).
Regarding `COc1ccc(-n2c(S)nnc2-c2cccc(C)c2[N+](=O)[O-])cc1`, the EC50 in test [4] was > 150 µM (inactive); in test [5], 1.7 µM (active).
On to `Cc1nn2c(nc(O)c3ccccc32)c1C=O`, for which the EC50 in test [4] was > 160 µM (inactive); in test [5] it was 2.16 µM (active). For the same compound, the AC50 on Cytochrome P450 2C9 is 15.8 µM (inconclusive).
For the compound `O=C(N/N=C/c1ccncc1)c1ccc(COc2cccc3cccnc23)cc1`, the IC50 in the test on H9c2 is 14.3 µM (active).
With `COc1ccccc1-c1nnc(NC(=O)c2ccc(S(=O)(=O)N(C)CC3CCCO3)cc2)o1` (centres undefined), the EC50 with Streptococcus (Streptococcus) is 78.9 µM (active); on Streptokinase A, > 150 µM (not active); in test [3] (Streptococcus sp. 'group A'), 19.5 µM (active).
For the compound `Cc1nn(-c2ccccc2)c(C)c1/C=N/NC(=O)c1cc(C2CC2)[nH]n1`, the IC50 in the test with H9c2 was > 79 µM (inactive).
Turning to `CN(C)S(=O)(=O)c1cccc(NC(=O)COC(=O)c2ccc([N+](=O)[O-])o2)c1`, the IC50 in the test with H9c2 was 10.3 µM (active).
Turning to `N#C/C(=C\c1ccc(Cl)cc1)c1nc2ccc[nH]c-2n1`, the EC50 in the test on H4 is 44 µM (active); in test [1], 14 µM (active); in test [2] it was > 120 µM (not active).
Turning to `CC1CCN(C(=O)COC(=O)c2nnc(O)c3ccccc23)CC1`, the IC50 in the test on H9c2 is > 79 µM (inactive).
